Legend:
[1] = tested on: human keloid tissue-derived fibroblasts; test: Cell viability of human keloid tissue-derived fibroblasts after TUDCA treatment (WST-1); format: cell-based; details: 6 hours, 12 hours, and 24 hours after TUDCA treatment (FIG. 5A)
Protocol: (§1) Human keloid-derived fibroblasts and normal skin-derived fibroblasts were cultured in Dulbecco's modified Eagle's medium (DMEM; Invitrogen), 10% fetal bovine serum (FBS; Hyclone, Logan, Utah, USA), 100 U/mL penicillin and 100 µg/mL streptomycin (Invitrogen) media at 5% CO2. Keloid-derived fibroblasts are placed 1×10^4/well on 96-well plates, after treatment with tauroursodeoxycholic acid (TUDCA; Merck Millipore, Billerica, Mass., USA) for 24 hours, cell proliferation was measured with an enzyme-linked immunosorbent assay reader using a 450 nm WST-1 (Roche Diagnostics Corporation, Indianapolis, Ind., USA) assay.
(§2) After treatment with TUDCA, the viability of human keloid tissue-derived fibroblasts and normal skin tissue-derived fibroblasts was evaluated.

[2] = tested on: COL1A2 and ER stress-related gene expression in human keloid tissue-derived fibroblasts; test: COL1A2 and ER stress-related gene expression in TUDCA-treated keloid fibroblasts; format: cell-based; details: TUDCA-treated human keloid tissue-derived fibroblasts (FIG. 5B)
[3] = tested on: rabbit ear scar (keloid animal model); test: Rabbit ear scar model, intralesional injection; format: in vivo, New Zealand white rabbit
Protocol: Animal studies were performed with the approval of the Preclinical Research Center (CNUH-019-A0079) of Chungnam National University Hospital. A 12-month-old female New Zealand white rabbit weighing about 4 kg was purchased from Damul Science (Daejeon, Korea), and all rabbits were kept individually in cages and received humane care according to institutional guidelines. After anesthetizing rabbits with a mixture of ketamine (60 mg/kg) and xylazine (5 mg/kg), the side ear hairs were shaved, disinfected with povidone-iodine, and then anesthetized. Next, after using a 10 mm biopsy punch to make 2 circular wounds with a diameter of 10 mm on the ventral surface of each ear, and covering the wound with an adhesive polyurethane dressing (Tegaderm; 3M, Minneapolis, Minn., USA), and once a day, the wound areas were disinfected with physiological saline and observed, and the adhesive polyurethane dressing was replaced. After wound formation, a simple dressing was maintained for 20 days to form a thick scar tissue, and on days 20 and 25 after wounding, saline, steroid (10 mg/mL) or TUDCA (10 mg/mL) was administered to the dermal region of the rabbit ear scar using a 30-gauge syringe (FIG. 1).
6. Scar Elevation Index (SEI) Calculation (Methods for Evaluating Keloid Tissue) SEI gives the ratio of total hypertrophic scar area to normal tissue present beneath the scar. In the present invention, the region where the cartilage layer is left as it is and the skin layer is excised is the B region. Area A contains an excessive amount of soft tissue compared to the surrounding normal dermal layer. An SEI greater than 1 indicates the formation of hypertrophic scars, keloids (FIG. 2).
Next, the efficacy of TUDCA for keloid improvement in a rabbit ear scar model was investigated.
On days 20 and 25 after wounding, normal saline (NS), steroids (10 mg/mL) or TUDCA (10 mg/mL) were injected into the scar dermis.

[4] = tested on: normal skin tissue-derived fibroblasts; test: Cell viability of normal skin tissue-derived fibroblasts after TUDCA treatment (WST-1); format: cell-based, human; details: 12 hours after exposure to TUDCA; smaller effect than in keloid fibroblasts (FIG. 5C)
Protocol: as §1, §2

[5] = tested on: keloid pathway markers p-SMAD2/3 and TGFβ1; test: Western blotting of keloid pathway markers in fibroblasts; format: cell-based, human; details: significant difference in keloid-derived versus normal skin-derived fibroblasts (FIG. 5D)
Protocol: Tissues were homogenized using a TissueLyzer II (Qiagen, Hilden, Germany). Cells and tissues were lysed in RIPA buffer (30 mM Tris [pH 7.5], 150 mM sodium chloride, 1 mM sodium phenylmethylsulfonyl fluoride, 1 mM sodium orthovanadate, 1% Nonidet P-40, 10% glycerol, phosphatase and protease inhibitors). Western blot analysis was performed with 40 μg of protein using a commercially available antibody. Anti-CHOP, anti-pERK, anti-ERK, anti-IRE1α, anti-pIRE1α, anti-pSMAD2/3 and anti-β-actin antibodies were purchased from Cell Signaling Technology (Beverly, Mass., USA). Anti-COL1A1, anti-ATF4, anti-TGFβ1, anti-IL-1 antibodies and secondary antibodies were purchased from Santa Cruz Biotechnology (Santa Cruz, Calif., USA) was used. Immune response bands were visualized by enhanced chemiluminescence (ECL) (Bio-Rad, Hercules, Calif., USA), and images were scanned using an Odyssey imaging system and quantified using Image Studio Digits (LI-COR Biosciences, Lincoln, Nebr., USA).
Human keloid-derived fibroblasts and normal skin-derived fibroblasts were cultured in Dulbecco's modified Eagle's medium (DMEM; Invitrogen), 10% fetal bovine serum (FBS; Hyclone, Logan, Utah, USA), 100 U/mL penicillin and 100 µg/mL streptomycin (Invitrogen) media at 5% CO2. […]
as §2

## C[C@H](CCC(=O)NCCS(=O)(=O)O)[C@H]1CC[C@H]2[C@@H]3[C@@H](O)C[C@@H]4C[C@H](O)CC[C@]4(C)[C@H]3CC[C@]12C [TUDCA, tauroursodeoxycholic acid]
[1]
  cell viability: significantly decreased
[2]
  COL1A2 gene expression level: significantly reduced
  ER stress-related gene expression levels: significantly reduced
[3]; 10 mg/mL injected into scar dermis on days 20 and 25 after wounding, compared with saline group (FIG. 7)
  gross appearance / healing of rabbit ear scars: healed better
[3]; 10 mg/mL intralesional, days 20 and 25, control group 2.778±0.346, p=0.0263 steroid, p=0.0098 TUDCA vs control
  Scar Elevation Index (SEI): 1.586±0.074
[3]; 10 mg/mL intralesional, days 20 and 25, tissue collected day 34, compared to saline group (FIG. 8)
  irregular fiber deposition in scar tissue (H&E): significantly reduced
[3]; rabbit ear scar model, p=0.0215
  decrease in SEI compared with the steroid group: significantly greater decrease
[4]
  viability of normal skin tissue-derived fibroblasts: decreased
[5]
  level of TGFβ1: reduced
  level of p-SMAD2/3: reduced
